# Results: ChEMBL document CHEMBL4052645, “Discovery of potent and efficacious pyrrolopyridazines as dual JAK1/3 inhibitors” (Bioorg Med Chem Lett, 2017)
# Key:
# [1] = biological target: Ribosomal protein S6 kinase alpha-6 (Homo sapiens) (UniProt Q9UK32); test: Inhibition of human N-terminal RSK4 kinase domain 1 (M1 to E397 residues) expressed in mammalian expression system assessed as residual activity at 50 nM by KINOMEscan assay relative to control
# [2] = biological target: Cyclin-dependent kinase 11B (Homo sapiens) (UniProt P21127); test: Inhibition of wild-type human partial length CDK11 (M1 to N360 residues) expressed in bacterial expression system assessed as residual activity at 50 nM by Kinomescan method relative to control
# [3] = biological target: Cyclin-dependent kinase 18 (Homo sapiens) (UniProt Q07002); test: Inhibition of wild-type human full length PCTAIRE3 (M3 to F474 residues) expressed in bacterial expression system assessed as residual activity at 50 nM by Kinomescan method relative to control
# [4] = biological target: Inhibitor of nuclear factor kappa-B kinase subunit alpha (Homo sapiens) (UniProt O15111); test: Inhibition of wild-type human full length IKK-alpha (M1 to E745 residues) expressed in mammalian expression system assessed as residual activity at 50 nM by Kinomescan method relative to control
# [5] = biological target: Serine/threonine-protein kinase DCLK1 (Homo sapiens) (UniProt O15075); test: Inhibition of wild-type human partial length DCAMKL1 (L270 to A662 residues) expressed in mammalian expression system assessed as residual activity at 50 nM by Kinomescan method relative to control
# [6] = biological target: RAC-alpha serine/threonine-protein kinase (Homo sapiens) (UniProt P31749); test: Inhibition of wild-type human partial length AKT1 expressed in bacterial expression system assessed as residual activity at 50 nM by Kinomescan method relative to control
# [7] = biological target: Cyclin-dependent kinase 13 (Homo sapiens) (UniProt Q14004); test: Inhibition of wild-type human partial length CDC2L5 (H675 to S1054 residues) expressed in mammalian expression system assessed as residual activity at 50 nM by Kinomescan method relative to control
# [8] = biological target: Phosphatidylinositol 4-phosphate 5-kinase type-1 alpha (Homo sapiens) (UniProt Q99755); test: Inhibition of human PIP5K1A (M1 to H562 residues) expressed in bacterial expression system assessed as residual activity at 50 nM by KINOMEscan assay relative to control
# [9] = biological target: Phosphatidylinositol 4-phosphate 3-kinase C2 domain-containing subunit beta (Homo sapiens) (UniProt O00750); test: Inhibition of wild-type human partial length PI3KC2B (M1 to L1634 residues) expressed in mammalian expression system assessed as residual activity at 50 nM by Kinomescan method relative to control
# [10] = biological target: Ephrin type-A receptor 1 (Homo sapiens) (UniProt P21709); test: Inhibition of wild-type human partial length EPHA1 (V588 to I913 residues) expressed in bacterial expression system assessed as residual activity at 50 nM by Kinomescan method relative to control
# [11] = system: Phosphatidylinositol 4,5-bisphosphate 3-kinase catalytic subunit alpha isoform (Homo sapiens), P42336 [C420R]; test: Inhibition of human partial length PI3KCA C420R mutant (R108 to N1068 residues) expressed in mammalian expression system assessed as residual activity at 50 nM by Kinomescan method relative to control
# [12] = biological target: Insulin-like growth factor 1 receptor (Homo sapiens) (UniProt P08069); test: Inhibition of wild-type human partial length IGF1R (L972 to D1294 residues) expressed in bacterial expression system assessed as residual activity at 50 nM by Kinomescan method relative to control
# [13] = biological target: MAP kinase-interacting serine/threonine-protein kinase 1 (Homo sapiens) (UniProt Q9BUB5); test: Inhibition of wild-type human full length MNK1 (M1 to L424 residues) expressed in mammalian expression system assessed as residual activity at 50 nM by Kinomescan method relative to control
# [14] = biological target: RAC-gamma serine/threonine-protein kinase (Homo sapiens) (UniProt Q9Y243); test: Inhibition of wild-type human partial length AKT3 expressed in bacterial expression system assessed as residual activity at 50 nM by Kinomescan method relative to control
# [15] = biological target: Serine/threonine-protein kinase BRSK1 (Homo sapiens) (UniProt Q8TDC3); test: Inhibition of wild-type human partial length BRSK1 (M1 to E754 residues) expressed in bacterial expression system assessed as residual activity at 50 nM by Kinomescan method relative to control
# [16] = biological target: Mitogen-activated protein kinase kinase kinase 11 (Homo sapiens) (UniProt Q16584); test: Inhibition of wild-type human partial length MLK3 (I77 to W399 residues) expressed in bacterial expression system assessed as residual activity at 50 nM by Kinomescan method relative to control
# [17] = biological target: Mitogen-activated protein kinase kinase kinase kinase 4 (Homo sapiens) (UniProt O95819); test: Inhibition of wild-type human partial length HGK (M1 to R310 residues) expressed in bacterial expression system assessed as residual activity at 50 nM by Kinomescan method relative to control
# [18] = biological target: Bone morphogenetic protein receptor type-1B (Homo sapiens) (UniProt O00238); test: Inhibition of wild-type human partial length BMPR1B (D178 to L502 residues) expressed in mammalian expression system assessed as residual activity at 50 nM by Kinomescan method relative to control
# [19] = biological target: Serine/threonine-protein kinase BRSK2 (Homo sapiens) (UniProt Q8IWQ3); test: Inhibition of wild-type human full length BRSK2 (M1 to L674 residues) expressed in bacterial expression system assessed as residual activity at 50 nM by Kinomescan method relative to control
# [20] = biological target: Casein kinase II subunit alpha' (Homo sapiens) (UniProt P19784); test: Inhibition of wild-type human full length CK2A2 (M1 to R350 residues) expressed in mammalian expression system assessed as residual activity at 50 nM by Kinomescan method relative to control
# [21] = biological target: Serine/threonine-protein kinase 24 (Homo sapiens) (UniProt Q9Y6E0); test: Inhibition of wild-type human partial length MST3 (A30 to S311 residues) expressed in bacterial expression system assessed as residual activity at 50 nM by Kinomescan method relative to control
# [22] = biological target: Atypical kinase COQ8A, mitochondrial (Homo sapiens) (UniProt Q8NI60); test: Inhibition of wild-type human […] ADCK3 (M280 to Q647 residues) expressed in bacterial expression system assessed as residual activity at 50 nM by Kinomescan method relative to control
# [23] = biological target: Vascular endothelial growth factor receptor 1 (Homo sapiens) (UniProt P17948); test: Inhibition of wild-type human partial length FLT1 (R781 to F1239 residues) expressed in bacterial expression system assessed as residual activity at 50 nM by Kinomescan method relative to control
# [24] = biological target: Cyclin-dependent kinase 9 (Homo sapiens) (UniProt P50750); test: Inhibition of wild-type human full length CDK9 (M1 to F372 residues) expressed in bacterial expression system assessed as residual activity at 50 nM by Kinomescan method relative to control
# [25] = biological target: cAMP-dependent protein kinase catalytic subunit beta (Homo sapiens) (UniProt P22694); test: Inhibition of wild-type human full length PKACB (M1 to F351 residues) expressed in bacterial expression system assessed as residual activity at 50 nM by Kinomescan method relative to control
compound,measurement,setting,value
CC1(C)[C@H](Nc2c(C(N)=O)cnn3cc(-c4ccccc4)cc23)CC[C@]1(C)N,Activity,[1],14%
same,Activity,[2],99%
same,Activity,[3],58%
same,Activity,[4],100%
same,Activity,[5],67%
same,Activity,[6],79%
same,Activity,[7],72%
same,Activity,[8],8.8%
same,Activity,[9],100%
same,Activity,[10],80%
same,Activity,[11],100%
same,Activity,[12],100%
same,Activity,[13],54%
same,Activity,[14],100%
same,Activity,[15],75%
same,Activity,[16],64%
same,Activity,[17],90%
same,Activity,[18],100%
same,Activity,[19],100%
same,Activity,[20],92%
same,Activity,[21],38%
same,Activity,[22],100%
same,Activity,[23],100%
same,Activity,[24],93%
same,Activity,[25],100%
COc1ccc(-c2cc3c(N[C@@H]4CC[C@](C)(N)C4(C)C)c(C(N)=O)cnn3c2)cn1,Activity,[1],46%
same,Activity,[2],100%
same,Activity,[3],100%
same,Activity,[4],87%
same,Activity,[5],99%
same,Activity,[6],95%
same,Activity,[7],100%
same,Activity,[8],17%
same,Activity,[9],100%
same,Activity,[10],93%
same,Activity,[11],100%
same,Activity,[12],100%
same,Activity,[13],100%
same,Activity,[14],100%
same,Activity,[15],100%
same,Activity,[16],100%
same,Activity,[17],100%
same,Activity,[18],100%
same,Activity,[19],96%
same,Activity,[20],85%
same,Activity,[21],61%
same,Activity,[22],76%
same,Activity,[23],90%
same,Activity,[24],100%
same,Activity,[25],100%
